Data reported in patent US20240246920A1, “TRIAZOLE DERIVATIVES WITH ANTIFUNGAL ACTIVITY” (King's College London, priority 2020, published 2024).
Values after ≈ are worked out from the molar mass of the structure shown. Read-outs that look alike come from different tables or passages of the source.

Key:
Candida auris TDG2211 = assay: microbe, parasite or virus in culture; assay type: cell-based; conditions: Candidozyma auris, TDG2211; Table 4, extended panel; 24 hours, ≥50% inhibition; read-out: MIC Candida auris TDG2211
Outline: (§1)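 Broth microdilution in RPMI 1640 with MOPS and 2% glucose, pH 7.0; C. auris inoculum 0.5-5×10^5/mL, one strain per plate, 24 h at 37° C.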

Candida auris TDG2506 = assay: microbe, parasite or virus in culture; assay type: cell-based; conditions: Candidozyma auris, TDG2506; Table 4, extended panel; 24 hours, ≥50% inhibition; read-out: MIC Candida auris TDG2506
Outline: as §1

C. auris 8977 = assay: Candida panel MIC, serial dilution in 96-well plates; assay type: cell-based, Candida auris; conditions: Candidozyma auris, 8977; Table 4, extended panel; 24 hours, ≥50% inhibition; read-out: MIC C. auris 8977
Outline: as §1

C. auris 8971 = assay: as above; assay type: cell-based, Candida auris; conditions: Candidozyma auris, 8971; Table 4, extended panel; 24 hours, ≥50% inhibition; read-out: MIC C. auris 8971
Outline: as §1

C. auris 8984 = assay: as above; assay type: cell-based, Candida auris; conditions: Candidozyma auris, 8984; Table 4, extended panel; 24 hours, ≥50% inhibition; read-out: MIC C. auris 8984
Outline: as §1

C. krusei NCPF3876 = assay: microbe, parasite or virus in culture; assay type: cell-based, Candida krusei; conditions: Pichia kudriavzevii
Outline: (§2)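 MIC taken as lowest concentration inhibiting growth ≥50% relative to drug-free control, from OD530 after 24 hours at 37° C. Fungi at 0.5-5×10^5/mL were exposed to serially diluted compound in RPMI 1640/MOPS/2% glucose medium adjusted to pH 7.0.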

C. auris TDG1912 = assay: Candida panel MIC, serial dilution in 96-well plates; assay type: cell-based; conditions: Candidozyma auris, TDG1912; Table 4; 24 hours, ≥50% inhibition; read-out: MIC C. auris TDG1912
Outline: (§3)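 MIC = lowest concentration inhibiting growth by ≥50% relative to fungus-only control, read by OD530 after 24 h at 37 °C. Medium: RPMI 1640 buffered with MOPS, 2% glucose, pH 7.0. Range 128–0.25 μg/mL; starting inoculum 0.5-5×10^5/mL.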

C. tropicalis NCPF8760 = assay: as above; assay type: cell-based
Outline: as §3

Candida auris TDG1102 = assay: as above; assay type: cell-based; conditions: Candidozyma auris, TDG1102; Table 4, extended panel; 24 hours, ≥50% inhibition; read-out: MIC Candida auris TDG1102
Outline: as §3

Candida auris TDG2512 = assay: as above; assay type: cell-based; conditions: Candidozyma auris, TDG2512; Table 4, extended panel; 24 hours, ≥50% inhibition; read-out: MIC Candida auris TDG2512
Outline: as §3

C. albicans NCPF3281 = assay: as above; assay type: cell-based, Candida albicans; conditions: NCPF3281, read-out: MIC C. albicans NCPF3281
Outline: as §3

C. parapsilosis NCPF3209 = assay: microbe, parasite or virus in culture; assay type: cell-based, Candida parapsilosis; conditions: Lodderomyces parapsilosis
Outline: as §2

[1] = test system: Galleria mellonella larvae; assay: Toxicity to larvae in the Galleria mellonella model; assay type: in vivo; conditions: dose of 50 mg/kg
C. albicans 3881 = assay: Candida albicans panel MIC; assay type: cell-based; conditions: Table 6, Candida albicans panel
Method: (§4) The minimum inhibitory concentration of test compounds were determined in a panel of Candida species (see Table 4 below), using the a serial dilution method in 96-well plates using the following protocol.
(§5) Starter cultures of fungal strains to be tested were grown in 3 mL of RPMI 2% glucose media incubated at 37° C. with shaking at 200 rpm overnight. The culture media used was 900 mL H2O; 10.4 g RPMI 1640 (with L-glutamine and a pH indicator but without bicarbonate); 34.5 g MOPS and 18 g glucose. The pH of the media was adjusted to 7.0 with 1 M sodium hydroxide.
(§6) Solutions of the compound to be tested were prepared by dissolving the compound in DMSO and subsequently into media to the desired concentrations. 200 μL of compound solution was then added to the wells of the 96-well plate using a serial dilution method row-by row of the plate to give a compound concentration gradient across the plate of from 128 μg/mL to 0.25 μg/mL. The last two rows of each plate were control rows containing the culture media alone and the media plus fungi.
(§7) The fungi starter cultures were diluted 1:10 in water in cuvettes. This was then further diluted to an optical density (OD600) of 0.01 in media. 100 μL of the fungi was added to each well giving a starting concentration of fungus of 0.5-5×10^5/mL. One species of fungus was used on each plate. The plates were then held at 37° C. for 24 hours.
(§8) A plate reader was used to measure growth in each well at OD530 nm and the MIC was determined for each test compound. The MIC is defined as the lowest concentration giving rise to inhibition of ≥50% of that of the drug-free control well containing the fungus and media.
(§9) The compounds shown in Table 6 were tested against a further panel of Candida albicans.

C. albicans 3882 = assay: Candida albicans panel MIC; assay type: cell-based; conditions: Table 6, Candida albicans panel
Method: as §4, §5, §6, §7, §8, §9

C. albicans 3880 = assay: Candida albicans panel MIC; assay type: cell-based; conditions: Table 6, Candida albicans panel
Method: as §4, §5, §6, §7, §8, §9

C. albicans 3363 = assay: Candida albicans panel MIC; assay type: cell-based; conditions: Table 6, Candida albicans panel
Method: as §4, §5, §6, §7, §8, §9

C. albicans 3990 = assay: Candida albicans panel MIC; assay type: cell-based; conditions: Table 6, Candida albicans panel
Method: as §4, §5, §6, §7, §8, §9

C. albicans 8112 = assay: Candida albicans panel MIC; assay type: cell-based; conditions: Table 6, Candida albicans panel
Method: as §4, §5, §6, §7, §8, §9

C. albicans 3645 = assay: Candida albicans panel MIC; assay type: cell-based; conditions: Table 6, Candida albicans panel
Method: as §4, §5, §6, §7, §8, §9

C. glabrata NCPF8018 = assay: Candida panel MIC, serial dilution in 96-well plates; assay type: cell-based, Candida glabrata; conditions: Nakaseomyces glabratus
Outline: as §2

C. auris strain TDG1912 = assay: Galleria mellonella infection model, larval survival; assay type: in vivo; conditions: G. mellonella infected with C. auris TDG1912; survival over 120 hours
Method: The effects of test compounds in-vivo was assessed using a Galleria mellonella infection model.
G. mellonella were injected in a proleg with 10 μL of C. auris strain TDG1912 (OD4) at a concentration of 1×10^6 cfu/10 μL using a Hamilton syringe and left for 30 minutes to recover from injection and to allow infection to begin. The G. mellonella were then injected with 10 μL of the compound of the invention at either 50 mg/kg (10% DMSO) or 20 mg/kg (4% DMSO) or PBS containing 10% DMSO as an infection-only control. 10 larvae were selected for each treatment, and the experiment was repeated 3 times for the test compound and fluconazole. Survival of larvae was monitored for a 5 day period and results are presented as % survival over 120 hours (see FIG. 1).

Structure (SMILES): OC(CN1CCC(Nc2ccc(OCCN3CCOCC3)cc2)CC1)(Cn1cncn1)c1ccc(F)cc1F (stereo not drawn) [Example 6, 2-(2,4-Difluorophenyl)-1-(4-((4-(2-morpholinoethoxy)phenyl)amino)piperidin-1-yl)-3-(1H-1,2,4-triazol-1-yl)propan-2-ol]
- MIC (Candida auris TDG2211): 0.5 µg/mL (≈ 0.921 µM)
- MIC (Candida auris TDG2506): 0.25 µg/mL (≈ 0.461 µM)
- MIC (C. auris 8977): 0.06 µg/mL (≈ 0.111 µM)
- MIC (C. auris 8971): 0.03 µg/mL (≈ 0.0553 µM)
- MIC (C. auris 8984): 0.125 µg/mL (≈ 0.23 µM)
- MIC (C. krusei NCPF3876; NCPF3876, read-out: MIC C. Krusei NCPF3876): 0.125 µg/mL (≈ 0.23 µM)
- MIC (C. krusei NCPF3876; NCPF3876, Table 4, common panel, 24 hours, ≥50% inhibition, read-out: MIC C. krusei NCPF3876): 0.125 µg/mL (≈ 0.23 µM)
- MIC (C. auris TDG1912): 0.125 µg/mL (≈ 0.23 µM)
- MIC (C. tropicalis NCPF8760; NCPF8760, Table 4, common panel, 24 hours, ≥50% inhibition, read-out: MIC C. tropicalis NCPF8760): 0.008 µg/mL (≈ 0.0147 µM)
- MIC (C. tropicalis NCPF8760; NCPF8760, read-out: MIC C. Tropicalis NCPF8760): 0.008 µg/mL (≈ 0.0147 µM)
- MIC (Candida auris TDG1102): 0.12 µg/mL (≈ 0.221 µM)
- MIC (Candida auris TDG2512): 0.015 µg/mL (≈ 0.0276 µM)
- MIC (C. albicans NCPF3281; Candida albicans, Table 4, common panel, 24 hours, ≥50% inhibition): 0.004 µg/mL (≈ 0.00737 µM)
- MIC (C. albicans NCPF3281; Table 6, Candida albicans panel): ≤ 0.125 µg/mL
- MIC (C. parapsilosis NCPF3209; NCPF3209, read-out: MIC C. Parapsilosis NCPF3209): 0.015 µg/mL (≈ 0.0276 µM)
- MIC (C. parapsilosis NCPF3209; NCPF3209, Table 4, common panel, 24 hours, ≥50% inhibition, read-out: MIC C. parapsilosis NCPF3209): 0.015 µg/mL (≈ 0.0276 µM)
- Toxicity to the larvae [1]: No toxicity
- MIC (C. albicans 3881): 0.5 µg/mL (≈ 0.921 µM)
- MIC (C. albicans 3882): 0.5 µg/mL (≈ 0.921 µM)
- MIC (C. albicans 3880): 0.25 µg/mL (≈ 0.461 µM)
- MIC (C. albicans 3363): 0.25 µg/mL (≈ 0.461 µM)
- MIC (C. albicans 3990): 0.25 µg/mL (≈ 0.461 µM)
- MIC (C. albicans 8112): 0.0156 µg/mL (≈ 0.0287 µM)
- MIC (C. albicans 3645): 0.0156 µg/mL (≈ 0.0287 µM)
- MIC (C. glabrata NCPF8018; NCPF8018, read-out: MIC C. Glabrata NCPF8018): 2 to 4 µg/mL (≈ 3.69 to 7.37 µM)
- MIC (C. glabrata NCPF8018; NCPF8018, Table 4, common panel, 24 hours, ≥50% inhibition, read-out: MIC C. glabrata NCPF8018): 0.25 µg/mL (≈ 0.461 µM)
- Protection against multi-drug resistant C. auris (larval survival) (C. auris strain TDG1912): statistically significant protection
